# According to ChEMBL document CHEMBL1149221, “Terephthalamide derivatives as mimetics of the helical region of Bak peptide target Bcl-xL protein” (Bioorg Med Chem Lett, 2004):
# Biological target: Bcl-2-like protein 1 (Homo sapiens, UniProt Q07817)
# Assay: Binding affinity for Bcl-xL was assessed by a fluorescence polarization assay using a fluorescently labeled 16-mer Bak-peptide
# Bcl-2-like protein 1, sequence (Q07817 whole entry): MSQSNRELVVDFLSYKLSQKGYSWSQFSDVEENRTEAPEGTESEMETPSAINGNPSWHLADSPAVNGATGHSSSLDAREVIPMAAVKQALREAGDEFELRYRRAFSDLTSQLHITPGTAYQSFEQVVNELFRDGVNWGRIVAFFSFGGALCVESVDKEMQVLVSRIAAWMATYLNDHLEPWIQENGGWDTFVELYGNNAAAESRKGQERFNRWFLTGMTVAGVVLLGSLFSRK
row,Compound,Ki
1,CC(C)C[C@H](NC(=O)c1ccc(C(=O)N(CC(C)C)C(C(=O)O)C(C)C)cc1OC(C)C)C(=O)O (stereo partly specified),> 30 µM
2,COC(=O)[C@@H](CC(C)C)NC(=O)c1ccc(C(=O)N(C(C)C)C(C)C)cc1OC,1.78 µM
3,CC(C)C[C@H](NC(=O)c1ccc(C(=O)N(CC(C)C)C(C)C(=O)O)cc1OC(C)C)C(=O)O (stereo partly specified),> 30 µM
4,COC(=O)CNC(=O)c1ccc(C(=O)N(C)C)cc1,> 30 µM
5,CC(C)CC(NC(=O)c1ccc(C(=O)N[C@@H](CC(C)C)C(=O)O)c(Oc2cccc3ccccc23)c1)C(=O)O (stereo partly specified),> 30 µM

# The remaining lines, values ahead:
row,Ki,Compound
1,> 30 µM,CC(C)CC(NC(=O)c1ccc(C(=O)N[C@@H](CC(C)C)C(=O)O)c(Oc2ccccc2)c1)C(=O)O (stereo partly specified)
2,1.01 µM,CC(C)C[C@H](NC(=O)c1ccc(C(=O)N(C(C)C)C(C)C)cc1Oc1ccccc1)C(=O)O
3,7.63 µM,CC(C)C[C@H](NC(=O)c1ccc(C(=O)N(C(C)C)C(C)C)cc1Oc1cccc2ccccc12)C(=O)O
4,11 µM,COC(=O)[C@H](C)NC(=O)c1ccc(C(=O)N(C(C)C)C(C)C)cc1OC(C)C
5,10.9 µM,COC(=O)[C@@H](NC(=O)c1ccc(C(=O)N(C(C)C)C(C)C)cc1OC(C)C)c1ccccc1
6,5.85 µM,COC(=O)[C@@H](NC(=O)c1ccc(C(=O)N(C(C)C)C(C)C)cc1OC(C)C)C(C)C
